Data reported in patent US6903095B2, “Phthalimido derivatives and a process for their preparation” (Hoffmann-La Roche Inc., priority 2002, dated 2005).
Structures can show the parent of a compound that is named as a salt.

What was measured:
human MAO-A = molecular target: T1, human MAO-A (Homo sapiens, UniProt P21397); test: MAO-A enzymatic activity, spectrophotometric assay (Amplex Red, tyramine substrate) on membranes of transfected EBNA cells; assay type: biochemical; conditions: 30 min preincubation at 37° C., pH 7.4, tyramine substrate
T1 construct: expressed in transfected cells; host or cells: EBNA cells (transient transfection; cell membranes used)
T1 sequence (P21397 1-527): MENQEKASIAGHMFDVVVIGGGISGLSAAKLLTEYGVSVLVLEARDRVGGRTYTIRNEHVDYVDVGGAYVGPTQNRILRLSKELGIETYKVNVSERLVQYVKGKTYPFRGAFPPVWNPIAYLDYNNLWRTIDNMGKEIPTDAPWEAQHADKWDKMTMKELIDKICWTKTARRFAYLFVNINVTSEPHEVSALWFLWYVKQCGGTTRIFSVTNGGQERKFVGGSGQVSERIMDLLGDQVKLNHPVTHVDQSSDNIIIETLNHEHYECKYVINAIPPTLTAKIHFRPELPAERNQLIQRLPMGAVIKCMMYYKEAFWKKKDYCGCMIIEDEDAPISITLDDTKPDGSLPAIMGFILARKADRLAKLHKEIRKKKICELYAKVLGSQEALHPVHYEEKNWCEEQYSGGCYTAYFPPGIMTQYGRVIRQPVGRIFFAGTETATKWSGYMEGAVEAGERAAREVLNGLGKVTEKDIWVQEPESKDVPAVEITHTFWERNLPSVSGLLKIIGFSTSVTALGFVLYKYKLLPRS
Method: (§1) The cDNA's encoding human MAO-A and MAO-B were transiently transfected into EBNA cells using the procedure described by E.-J. Schlaeger and K. Christensen (Transient Gene Expression in Mammalian Cells Grown in Serum-free Suspension Culture; Cytotechnology, 15: 1-13, 1998). After transfection, cells were homogenized by means of a Polytron homogenizer in 20 mM Tris HCl buffer, pH 8.0, containing 0.5 mM EGTA and 0.5 mM phenylmethanesulfonyl fluoride. Cell membranes were obtained by centrifugation at 45,000×g and, after two rinsing step with 20 mM Tris HCl buffer, pH 8.0, containing 0.5 mM EGTA, membranes were eventually re-suspended in the above buffer and aliquots stored at −80° C. until use.
(§2) MAO-A and MAO-B enzymatic activity was assayed in 96-well-plates using a spectrophotometric assay adapted from the method described by M. Zhou and N. Panchuk-Voloshina (A One-Step Fluorometric Method for the Continuous Measurement of Monoamine Oxidase Activity, Analytical Biochemistry, 253: 169-174, 1997). Briefly, membrane aliquots were incubated in 0.1 M potassium phosphate buffer, pH 7.4, for 30 min at 37° C. with or without various concentrations of the compounds. After this period, the enzymatic reaction was started by the addition of the MAO substrate tyramine together with 1 U/ml horse-radish peroxidase (Roche Biochemicals) and 80 μM N-acetyl-3,7,-dihydroxyphenoxazine (Amplex Red, Molecular Probes). The samples were further incubated for 30 min at 37° C. in a final volume of 200 μl and absorbance was then determined at a wavelength of 570 nm using a SpectraMax plate reader (Molecular Devices). Background (non-specific) absorbance was determined in the presence of 10 μM clorgyline for MAO-A or 10 μM L-deprenyl for MAO-B.
(§3) IC50 values were determined from inhibition curves obtained using nine inhibitor concentrations in duplicate, by fitting data to a four parameter logistic equation using a computer program.

human MAO-B = molecular target: T2, human MAO-B (Homo sapiens, UniProt P27338); test: MAO-B enzymatic activity, spectrophotometric assay (Amplex Red, tyramine substrate) on membranes of transfected EBNA cells; assay type: biochemical; conditions: 30 min preincubation at 37° C., pH 7.4, tyramine substrate
T2 construct: expressed in transfected cells; host or cells: EBNA cells (transient transfection; cell membranes used)
T2 sequence (P27338 1-520): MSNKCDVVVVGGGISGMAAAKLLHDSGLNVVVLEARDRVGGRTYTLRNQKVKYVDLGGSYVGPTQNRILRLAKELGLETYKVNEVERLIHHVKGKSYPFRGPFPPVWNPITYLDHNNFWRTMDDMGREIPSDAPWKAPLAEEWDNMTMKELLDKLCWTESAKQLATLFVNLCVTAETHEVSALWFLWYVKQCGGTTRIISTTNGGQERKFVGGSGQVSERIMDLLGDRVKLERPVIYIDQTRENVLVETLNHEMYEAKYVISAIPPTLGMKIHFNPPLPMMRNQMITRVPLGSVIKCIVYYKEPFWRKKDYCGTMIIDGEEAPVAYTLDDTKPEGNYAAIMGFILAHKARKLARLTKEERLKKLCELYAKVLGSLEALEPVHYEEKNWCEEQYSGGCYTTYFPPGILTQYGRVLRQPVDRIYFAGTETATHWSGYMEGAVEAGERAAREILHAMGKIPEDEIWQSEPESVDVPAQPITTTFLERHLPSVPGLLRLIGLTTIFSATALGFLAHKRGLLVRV
Method: as §1, §2, §3

SMILES | IC50 (human MAO-A) | IC50 (human MAO-B)
N#CCN1C(=O)c2ccc(OCc3ccc(F)cc3)cc2C1=O [Example 7] | > 10000 nM | 34 nM
C[C@@H](C(N)=O)N1C(=O)c2ccc(OCc3cccc(F)c3)cc2C1=O [Example 44, (S)-2-[5-(3-Fluoro-benzyloxy)-1,3-dioxo-1,3-dihydro-isoindol-2-yl]-propionamide] | 5760 nM | 7 nM
COC[C@H](C)N1C(=O)c2ccc(OCc3ccc(Br)cc3)cc2C1=O [Example 28, (S)-5-(4-Bromo-benzyloxy)-2-(2-methoxy-1-methyl-ethyl)-isoindole-1,3-dione] | > 10000 nM | 34 nM
O=C1c2ccc(OCc3ccc(F)cc3)cc2C(=O)N1CCO [Example 12, 5-(4-Fluoro-benzyloxy)-2-(2-hydroxy-ethyl)-isoindole-1,3-dione] | 369 nM | 4 nM
NCCN1C(=O)c2ccc(OCc3ccc(F)cc3)cc2C1=O [Example 9, 2-(2-Amino-ethyl)-5-(4-fluoro-benzyloxy)-isoindole-1,3-dione 1:1 hydrochloride] | > 10000 nM | 32 nM
O=C1c2ccc(OCc3ccc(F)cc3)cc2C(=O)N1Cc1cccs1 [Example 34, 5-(4-Fluoro-benzyloxy)-2-thiophen-2-ylmethyl-isoindole-1,3-dione] | > 10000 nM | 81 nM
COC[C@H](C)N1C(=O)c2ccc(OCc3ccc(C#N)cc3)cc2C1=O [Example 30, (S)-4-[2-(2-Methoxy-1-methyl-ethyl)-1,3-dioxo-2,3-dihydro-1H-isoindol-5-yloxymethyl]-bezonitrile] | 6200 nM | 129 nM
CCSCCN1C(=O)c2ccc(OCc3ccc(F)cc3)cc2C1=O [Example 19, 2-(2-Ethylsulfanyl-ethyl)-5-(4-fluoro-benzyloxy)-isoindole-1,3-dione] | > 10000 nM | 11 nM
CC[S+]([O-])CCN1C(=O)c2ccc(OCc3ccc(F)cc3)cc2C1=O (stereo not drawn) [Example 38, 2-(2-Ethanesulfinyl-ethyl)-5-(4-fluoro-benzyloxy)-isoindole-1,3-dione] | > 10000 nM | 115 nM
COC(CN1C(=O)c2ccc(OCc3ccc(F)cc3)cc2C1=O)C(F)(F)F (stereo not drawn) [Example 43] | > 10000 nM | 45 nM
C[C@@H](C(N)=O)N1C(=O)c2ccc(OCc3ccc(F)cc3)cc2C1=O [Example 2, (S)-2-[5-(4-Fluoro-benzyloxy)-1,3-dioxo-1,3-dihydro-isoindol-2-yl]-propionamide] | 776 nM | 8 nM
COC[C@H](C)N1C(=O)c2ccc(OCc3ccc(OC(F)(F)F)cc3)cc2C1=O [Example 32, (S)-2-(2-Methoxy-1-methyl-ethyl)-5-(4-trifluoromethoxy-benzyloxy)-isoindole-1,3-dione] | > 10000 nM | 47 nM
NC(=O)[C@H](CO)N1C(=O)c2ccc(OCc3cccc(F)c3)cc2C1=O [Example 52, (S)-2-[5-(3-Fluoro-benzyloxy)-1,3-dioxo-1,3-dihydro-isoindol-2-yl]-3-hydroxy-propionamide] | > 10000 nM | 20 nM
COC[C@H](C)N1C(=O)c2ccc(OCc3cccc(OC)c3)cc2C1=O [Example 29, (S)-5-(3-Methoxy-benzyloxy)-2-(2-methoxy-1-methyl-ethyl)-isoindole-1,3-dione] | > 10000 nM | 69 nM
NC(=O)CC(O)CN1C(=O)c2ccc(OCc3ccc(F)cc3)cc2C1=O (stereo not drawn) [Example 22, 4-[5-(4-Fluoro-benzyloxy)-1,3-dioxo-1,3-dihydro-isoindol-2-yl]-3-hydroxy-butyramide] | > 10000 nM | 97 nM
NC(=O)[C@H](CO)N1C(=O)c2ccc(OCc3ccc(F)cc3)cc2C1=O [Example 14, (S)-2-[5-(4-Fluoro-benzyloxy)-1,3-dioxo-1,3-dihydro-isoindol-2-yl]-3-hydroxy-propionamide] | > 10000 nM | 17 nM
COC[C@H](C)N1C(=O)c2ccc(OCc3ccc(F)c(F)c3)cc2C1=O [Example 31, (S)-5-(3,4-Difluoro-benzyloxy)-2-(2-methoxy-1-methyl-ethyl)-isoindole-1,3-dione] | 3500 nM | 32 nM
NCCN1C(=O)c2ccc(OCc3cccc(F)c3)cc2C1=O [Example 50, 2-(2-Amino-ethyl)-5-(3-fluoro-benzyloxy)-isoindole-1,3-dione 1:1 hydrochloride] | > 10000 nM | 39 nM
